Values belong to the substance of their own block, whether it stands above or below them. No end group written: not given here.
Columns and labels:
IL-9 = biological target: T1, IL-9 (Mus musculus, UniProt P15247); experiment: PT-18β proliferation assay (WST-1), IL-9; assay type: cell-based; conditions: PT-18β cells, 1 nM IL-9, BNZ-γ from HEK293T supernatant 1:20 or 1:50, 2 days
T1 sequence (P15247 19-144): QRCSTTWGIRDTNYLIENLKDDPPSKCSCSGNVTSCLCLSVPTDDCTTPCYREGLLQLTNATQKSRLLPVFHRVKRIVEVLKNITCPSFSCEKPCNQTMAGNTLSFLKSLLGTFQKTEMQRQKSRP
Source text: (§1) For each of the six γc-cytokines, indicator cell lines: CTLL-2, a murine CD8 T cells line available from American Type Culture Collection, and PT-18, a murine mast cell line and its subclone PT-183, is transfected with human IL-2Rβ gene to make the cells responsive to IL-2 and IL-15 (Tagaya et al., 1996, EMBO J. 15:4928-39), and is used to quantitatively determine the γc-cytokine's growth-promoting activity (See Current protocols in Immunology from Wiley and Sons for a methodological reference). […] Once the appropriate doses of the cytokine that yield the 50% and 95% maximum response from the indicator cell line is determined, various concentrations (ranging from 1 pM to 10 μM) of the purified or synthesized custom derivative peptide is added to each well containing the cytokine and indicator cells. The reduction in light absorbance at 450 nm is used as an indicator of inhibition of cytokine-stimulated cellular proliferation. Typically, the cells are stimulated by the cytokines such that the absorbance of the well containing indicator cell line and the cytokine is between 2.0 and 3.0, which is reduced to a range of 0.1 to 0.5 by the addition of inhibitory peptides.
(§2) The growth-responses of the cells were determined 2 days after the introduction of BNZ-γ peptide and the cytokine using the WST-1 assay. […]

[1] = tested on: IL-15-mediated tyrosine-phosphorylation of STAT5; experiment: IL-15-mediated tyrosine phosphorylation of STAT5 in PT-18β cells (immunoblot); assay type: cell-based, murine; conditions: PT-18β cells stimulated by IL-15, anti-phospho-STAT5 immunoblot
Source text: In addition to stimulating cellular proliferation, binding of the γc-cytokines to their receptors causes a diverse array of intracellular events. (Rochman et al. 2009 Nat. Rev. Immunol. 9:480-90, Pesu et al. 2005 Immunol. Rev. 203:127-142.) Immediately after the cytokine binds to its receptor, a tyrosine kinase called Jak3 (Janus-kinase 3) is recruited to the receptor at the plasma membrane. This kinase phosphorylates the tyrosine residues of multiple proteins including the γc-subunit, STAT5 (Signal Transducer and Activator of Transcription 5) and subunits of the PI3 (Phosphatidylinositol 3) kinase. Among these, the phosphorylation of STAT5 has been implicated in many studies as being linked to the proliferation of cells initiated by the γc-cytokine. (Reviewed in Hennighausen and Robinson, 2008 Genes Dev. 22:711-21.) In accordance with these published data, whether or not the BNZ-γ peptide inhibits the tyrosine phosphorylation of STAT5 molecule in PT-18β cells stimulated by IL-15 was examined (results shown in FIG. 3C).
PT-18β cells were stimulated by IL-15 in the presence or absence of BNZ-γ peptide. Cytoplasmic proteins were extracted from the cells according to a conventional method as described in Tagaya et al. 1996 EMBO J. 15:4928-39. […]

IL-2 = experiment: PT-18 proliferation assay, IL-2 (FIG. 3A legend); assay type: cell-based
Procedure: The growth-responses of the cells were determined 2 days after the introduction of BNZ-γ peptide and the cytokine using the WST-1 assay. […] Cellular proliferation stimulated by IL-4, another γc-cytokine, was not affected by the by the addition of BNZ-γ peptide. Results for IL-3, IL-9, IL-15, and IL-4 are shown at FIG. 3A.

IL-15 = IL-15 (Homo sapiens, UniProt P40933); experiment: PT-18β proliferation assay (WST-1), IL-15; assay type: cell-based; conditions: PT-18β cells, 1 nM IL-15, BNZ-γ from HEK293T supernatant 1:20 or 1:50, 2 days
Source text: as §1, §2

IL-3 = biological target: T2, IL-3 (Mus musculus, UniProt P01586); experiment: PT-18β proliferation assay (WST-1), IL-3 (non γc-cytokine control); assay type: cell-based; conditions: PT-18β cells, 1 nM IL-3, BNZ-γ from HEK293T supernatant 1:20 or 1:50, 2 days
T2 sequence (P01586 27-166): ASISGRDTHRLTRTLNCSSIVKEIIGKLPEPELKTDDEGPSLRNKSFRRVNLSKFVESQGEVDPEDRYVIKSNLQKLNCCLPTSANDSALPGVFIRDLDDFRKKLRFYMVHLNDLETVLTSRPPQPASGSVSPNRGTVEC
Source text: as §1, §2

IL-4 = biological target: T3, IL-4 (Mus musculus, UniProt P07750); experiment: PT-18β proliferation assay (WST-1), IL-4; assay type: cell-based; conditions: PT-18β cells, 1 nM IL-4, BNZ-γ from HEK293T supernatant 1:20 or 1:50, 2 days
T3 sequence (P07750 21-140): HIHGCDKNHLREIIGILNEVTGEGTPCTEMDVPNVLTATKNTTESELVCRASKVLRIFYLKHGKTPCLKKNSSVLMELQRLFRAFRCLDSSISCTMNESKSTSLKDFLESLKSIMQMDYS
Source text: as §1, §2

γc-cytokines = experiment: Target cytokine spectrum within the γc-family (summary statements); assay type: cell-based
[2] = tested on: T-cells in HAM/TSP culture
IL-6 = experiment: T1165 proliferation in the presence of IL-6 (Example 25); assay type: cell-based, human or mouse
Procedure: The BNZ130-1 polypeptide as presented in Table 2, above, is tested for its activity in inhibiting IL-6 activity. T1165 cells that are dependent on human or mouse IL-6 for their growth in vitro are selected. The cell line is cultured in the absence of IL-6, In the presence of IL-6, in the presence of BNZ130-1, and in the presence of IL-6 and BNZ130-1.

[3] = HAM/TSP peripheral blood ex vivo culture, flow cytometry

IL-15, sequence (P40933 49-162): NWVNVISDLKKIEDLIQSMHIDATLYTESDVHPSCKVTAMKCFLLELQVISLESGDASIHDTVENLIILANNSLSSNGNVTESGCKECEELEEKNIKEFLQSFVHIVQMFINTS

growth-promoting activity of IL-3 (non γc-cytokine) (IL-3): not inhibited
cellular proliferation stimulated by IL-4 (IL-4): not affected
Substance: I-K-E-F-L-Q-R-F-I-H-I-V-Q-S-I-I-N-T-S (IKEFLQRFIHIVQSIINTS) [BNZ-γ]
growth-promoting activity of IL-9 (IL-9): significantly (p<0.01 Student's T test) reduced
tyrosine phosphorylation of STAT5 [1]: markedly reduced
IL-2 activity in PT-18 proliferation assay (IL-2): inhibition
growth-promoting activity of IL-15 (IL-15): significantly (p<0.01 Student's T test) reduced
γc-cytokines not inhibited (γc-cytokines): IL-4, IL-7 and IL-21
γc-cytokines inhibited (γc-cytokines; BNZ132-2 and BNZ132-3 data not shown): IL-2, IL-15 and IL-9
percent of live cells by Guava staining [2]: not impacted
concentration at which spontaneous proliferation of T-cells is inhibited ([2]; HAM/TSP patient PBMC, 3, 4 and 6 days, 3H-thymidine): about 1 ug/ml
population of CD4+CD25+ cells [2, 3]: diminished
population of CD4+Ki67 cells [2, 3]: reduced

Substance: LTHLIERSSRAVLQSLLRASRQ [BNZ130-1]
effect on T1165 survival (IL-6; Example 25, with or without IL-6): does not affect
antagonistic activity on T1165 proliferation in the presence of IL-6 (IL-6; Example 25, written in present tense): dose-dependent antagonistic activity

Reference: patent publication US10808009B2, “Peptide conjugates” (BIONIZ, LLC, priority 2011, dated 2020)
